{"source": "patent US20180140572A1", "about": "“COMPOSITIONS COMPRISING A CANCER STEMNESS INHIBITOR AND AN IMMUNOTHERAPEUTIC AGENT FOR USE IN TREATING CANCER” (Boston Biomedical, Inc., priority 2015, published 2018)", "key": {"STAT3 pathway": {"test_system": "STAT3 pathway", "settings": "read-out: STAT3 pathway activity cellular IC50; cited from earlier work"}, "FaDu sphere cultures": {"test_system": "FaDu sphere cultures", "assay": "qPCR cancer stem cell array in FaDu sphere cultures", "format": "cell-based", "parameters": "% Change ATM / % Change MERTK / % Change NOTCH2 / % Change LATS1 / % Change ITGA2 / % Change SMO / % Change TGFBR1 / % Change MAML1 / % Change WWC1 / % Change ITGA6 / % Change ITGB1 / % Change AXL / % Change KITLG / % Change JAK2 / % Change YAP1 / % Change BMI1 / % Change NOTCH1 / % Change ATXN1 / % Change ERBB2 / % Change SIRT1 / % Change WEE1 / % Change FGFR2 / % Change DDR1 / % Change GSK3B / % Change ENG / % Change DACH1 / % Change ALCAM / % Change HDAC1 / % Change CD44 / % Change HPRT1 / % Change IKBKB / % Change DNMT1 / % Change ETFA / % Change FOXP1 / % Change FLOT2 / % Change CHEK1 / % Change MUC1 / % Change CD24 / % Change NFKB1 / % Change NANOG / % Change ACTB / % Change EPCAM / % Change STAT3 / % Change TWIST2 / % Change PLAUR / % Change EGF / % Change ALDH1A1 / % Change RPLP0 / % Change TAZ / % Change JAG1 / % Change KLF17 / % Change ID1 / % Change ITGA4 / % Change IL8 / % Change MYC / % Change CD34 / % Change LIN28A / % Change POU5F1 / % Change PECAM1: dose or concentration left out as unconfirmed", "settings": "6 hours, normalized to GAPDH", "protocol": "The changes in gene expression following treatment with BBI608 were analyzed. FaDu sphere cultures were treated for 6 hours with DMSO (control) or BBI608 at […]. Total RNA was isolated, reversed transcribed and the generated cDNA was analyzed using a qPCR cancer stem cell array. Data was normalized to the expression of the house keeping gene, GAPDH."}, "CT26 colon tumor": {"test_system": "CT26 colon tumor", "assay": "CT26 syngeneic murine colon carcinoma model, tumor volume", "format": "in vivo, BALB/c mouse", "settings": "BBI608 100 mg/kg po qd", "description": "All BALB/c mice (Taconic, Hudson, N.Y., USA) were housed in Association for Assessment and Accreditation of Laboratory Animal Care approved facilities in static microisolator cages. Murine MSS-status colon carcinoma CT26 cells (ATCC CRL-2639) and murine breast carcinoma cells 4T1 (ATCC CRL-2539) were purchased from American Type Culture Collection (ATCC, Manassas, Va., USA), and grown in RPMI-1640 medium (ATCC) supplemented with 10% heat-inactivated fetal calf serum. After harvesting during exponential growth, tumors were initiated by subcutaneously implanting 3×10^5 CT26 tumor cells into the right dorsal flank of each 8-12 week old female BALB/c mouse. […] Body weight and clinical signs were monitored throughout the course of the treatment in accordance with the Institutional Animal Care and Use Committee approved protocols. Drug efficacy was analyzed by measuring tumor volume in mm^3 calculated by multiplying 0.5×width^2×length. […]"}, "PD-L1": {"test_system": "PD-L1", "assay": "IFNγ-induced PD-L1 expression in CT26 cells (Western blotting)", "format": "cell-based, mouse", "settings": "100 ng/ml IFNγ, 24 hours, 1 μM BBI608", "protocol": "3×10^5 CT26 cells in 6-well plated were treated with 100 ng/ml IFNγ for 24 hours at the presence of control DMSO or 1 μM BBI608. Cells were washed twice with ice-cold PBS and lysed in lysis buffer [50 mM Hepes (pH 7.5), 1% Nonidet P-40, 150 mM NaCl, 1 mM EDTA, and 1× protease and phosphatase inhibitor mixture (EMD Millipore)]. Soluble protein (20 μg) was separated by SDS/PAGE and transferred to nitrocellulose membranes. Primary antibodies against P-STAT3 (Y705), PD-L1, and ACTIN (Sigma) were used in this study. The antigen-antibody complexes were visualized by enhanced chemiluminescence (BioRad)."}}}
{"compound": "CC(=O)c1cc2c(o1)C(=O)c1ccccc1C2=O", "note": "[BBI608, 2-acetylnaphtho[2,3-b]furan-4,9-dione]", "values": [{"measurement": "IC50", "setting": "STAT3 pathway", "value": "~250", "unit": "nM"}, {"measurement": "% Change ACTB", "setting": "FaDu sphere cultures; gene ACTB", "value": "−24.49", "unit": "%"}, {"measurement": "% Change ALCAM", "setting": "FaDu sphere cultures; gene ALCAM", "value": "−36.13", "unit": "%"}, {"measurement": "% Change ALDH1A1", "setting": "FaDu sphere cultures; gene ALDH1A1", "value": "−18.18", "unit": "%"}, {"measurement": "% Change ATM", "setting": "FaDu sphere cultures; gene ATM", "value": "−68.65", "unit": "%"}, {"measurement": "% Change ATXN1", "setting": "FaDu sphere cultures; gene ATXN1", "value": "−45.26", "unit": "%"}, {"measurement": "% Change AXL", "setting": "FaDu sphere cultures; gene AXL", "value": "−48.50", "unit": "%"}, {"measurement": "% Change B2M", "setting": "FaDu sphere cultures; gene B2M", "value": "−27.69", "unit": "%"}, {"measurement": "% Change BMI1", "setting": "FaDu sphere cultures; gene BMI1", "value": "−47.40", "unit": "%"}, {"measurement": "% Change CD24", "setting": "FaDu sphere cultures; gene CD24", "value": "−26.46", "unit": "%"}, {"measurement": "% Change CD34", "setting": "FaDu sphere cultures; gene CD34", "value": "−88.18", "unit": "%"}, {"measurement": "% Change CD44", "setting": "FaDu sphere cultures; gene CD44", "value": "−35.44", "unit": "%"}, {"measurement": "% Change CHEK1", "setting": "FaDu sphere cultures; gene CHEK1", "value": "−28.88", "unit": "%"}, {"measurement": "% Change DACH1", "setting": "FaDu sphere cultures; gene DACH1", "value": "−36.55", "unit": "%"}, {"measurement": "% Change DDR1", "setting": "FaDu sphere cultures; gene DDR1", "value": "−38.59", "unit": "%"}, {"measurement": "% Change DNMT1", "setting": "FaDu sphere cultures; gene DNMT1", "value": "−32.09", "unit": "%"}, {"measurement": "% Change EGF", "setting": "FaDu sphere cultures; gene EGF", "value": "−19.07", "unit": "%"}, {"measurement": "% Change ENG", "setting": "FaDu sphere cultures; gene ENG", "value": "−37.62", "unit": "%"}, {"measurement": "% Change EPCAM", "setting": "FaDu sphere cultures; gene EPCAM", "value": "−22.87", "unit": "%"}, {"measurement": "% Change ERBB2", "setting": "FaDu sphere cultures; gene ERBB2", "value": "−43.81", "unit": "%"}, {"measurement": "% Change ETFA", "setting": "FaDu sphere cultures; gene ETFA", "value": "−31.12", "unit": "%"}, {"measurement": "% Change FGFR2", "setting": "FaDu sphere cultures; gene FGFR2", "value": "−41.18", "unit": "%"}, {"measurement": "% Change FLOT2", "setting": "FaDu sphere cultures; gene FLOT2", "value": "−29.19", "unit": "%"}, {"measurement": "% Change FOXP1", "setting": "FaDu sphere cultures; gene FOXP1", "value": "−29.76", "unit": "%"}, {"measurement": "% Change GSK3B", "setting": "FaDu sphere cultures; gene GSK3B", "value": "−38.06", "unit": "%"}, {"measurement": "% Change HDAC1", "setting": "FaDu sphere cultures; gene HDAC1", "value": "−36.10", "unit": "%"}, {"measurement": "% Change HPRT1", "setting": "FaDu sphere cultures; gene HPRT1", "value": "−33.81", "unit": "%"}, {"measurement": "% Change ID1", "setting": "FaDu sphere cultures; gene ID1", "value": "−12.68", "unit": "%"}, {"measurement": "% Change IKBKB", "setting": "FaDu sphere cultures; gene IKBKB", "value": "−32.11", "unit": "%"}, {"measurement": "% Change IL8", "setting": "FaDu sphere cultures; gene IL8", "value": "−7.62", "unit": "%"}, {"measurement": "% Change ITGA2", "setting": "FaDu sphere cultures; gene ITGA2", "value": "−60.71", "unit": "%"}, {"measurement": "% Change ITGA4", "setting": "FaDu sphere cultures; gene ITGA4", "value": "−11.52", "unit": "%"}, {"measurement": "% Change ITGA6", "setting": "FaDu sphere cultures; gene ITGA6", "value": "−54.63", "unit": "%"}, {"measurement": "% Change ITGB1", "setting": "FaDu sphere cultures; gene ITGB1", "value": "−50.45", "unit": "%"}, {"measurement": "% Change JAG1", "setting": "FaDu sphere cultures; gene JAG1", "value": "−14.24", "unit": "%"}, {"measurement": "% Change JAK2", "setting": "FaDu sphere cultures; gene JAK2", "value": "−47.94", "unit": "%"}, {"measurement": "% Change KITLG", "setting": "FaDu sphere cultures; gene KITLG", "value": "−47.99", "unit": "%"}, {"measurement": "% Change KLF17", "setting": "FaDu sphere cultures; gene KLF17", "value": "−90.18", "unit": "%"}, {"measurement": "% Change LATS1", "setting": "FaDu sphere cultures; gene LATS1", "value": "−60.75", "unit": "%"}, {"measurement": "% Change LIN28A", "setting": "FaDu sphere cultures; gene LIN28A", "value": "−87.52", "unit": "%"}, {"measurement": "% Change MAML1", "setting": "FaDu sphere cultures; gene MAML1", "value": "−52.82", "unit": "%"}, {"measurement": "% Change MERTK", "setting": "FaDu sphere cultures; gene MERTK", "value": "−65.78", "unit": "%"}, {"measurement": "% Change MUC1", "setting": "FaDu sphere cultures; gene MUC1", "value": "−27.42", "unit": "%"}, {"measurement": "% Change MYC", "setting": "FaDu sphere cultures; gene MYC", "value": "−3.91", "unit": "%"}, {"measurement": "% Change NANOG", "setting": "FaDu sphere cultures; gene NANOG", "value": "−93.34", "unit": "%"}, {"measurement": "% Change NFKB1", "setting": "FaDu sphere cultures; gene NFKB1", "value": "−25.54", "unit": "%"}, {"measurement": "% Change NOTCH1", "setting": "FaDu sphere cultures; gene NOTCH1", "value": "−46.24", "unit": "%"}, {"measurement": "% Change NOTCH2", "setting": "FaDu sphere cultures; gene NOTCH2", "value": "−64.37", "unit": "%"}, {"measurement": "% Change PECAM1", "setting": "FaDu sphere cultures; gene PECAM1", "value": "−70.26", "unit": "%"}, {"measurement": "% Change PLAUR", "setting": "FaDu sphere cultures; gene PLAUR", "value": "−20.64", "unit": "%"}, {"measurement": "% Change POU5F1", "setting": "FaDu sphere cultures; gene POU5F1", "value": "−77.31", "unit": "%"}, {"measurement": "% Change RPLP0", "setting": "FaDu sphere cultures; gene RPLP0", "value": "−17.48", "unit": "%"}, {"measurement": "% Change SIRT1", "setting": "FaDu sphere cultures; gene SIRT1", "value": "−43.35", "unit": "%"}, {"measurement": "% Change SMO", "setting": "FaDu sphere cultures; gene SMO", "value": "−55.56", "unit": "%"}, {"measurement": "% Change STAT3", "setting": "FaDu sphere cultures; gene STAT3", "value": "−22.87", "unit": "%"}, {"measurement": "% Change TAZ", "setting": "FaDu sphere cultures; gene TAZ", "value": "−15.09", "unit": "%"}, {"measurement": "% Change TGFBR1", "setting": "FaDu sphere cultures; gene TGFBR1", "value": "−53.34", "unit": "%"}, {"measurement": "% Change TWIST2", "setting": "FaDu sphere cultures; gene TWIST2", "value": "−21.59", "unit": "%"}, {"measurement": "% Change WEE1", "setting": "FaDu sphere cultures; gene WEE1", "value": "−42.86", "unit": "%"}, {"measurement": "% Change WWC1", "setting": "FaDu sphere cultures; gene WWC1", "value": "−51.64", "unit": "%"}, {"measurement": "% Change YAP1", "setting": "FaDu sphere cultures; gene YAP1", "value": "−47.45", "unit": "%"}, {"measurement": "tumor growth inhibition", "setting": "CT26 colon tumor; by the end of treatment (11 days)", "value": 76, "unit": "%"}, {"measurement": "anti-tumor activity (tumor volume course)", "setting": "CT26 colon tumor; anti-PD-1 antibody 10 mg/kg iv q4d, 11 days", "value": "lasting anti-tumor activity"}, {"measurement": "IFNγ-induced PD-L1 expression", "setting": "PD-L1", "value": "reduced"}]}
